This note sets out measurements from ChEMBL document CHEMBL3286127, “Aminoadamantanes with persistent in vitro efficacy against H1N1 (2009) influenza A” (J Med Chem, 2014).

By EC50 is commonly meant the concentration needed to bring the measured effect to its halfway point. Low values mean greater potency, high ones weaker potency.

Assay [1] is described as follows: Antiviral activity against Influenza A virus (A/California/07/2009(H1N1)) infected in MDCK cells expressing M2 S31N mutant after overnight incubation by fluorescence-based miniplaque assay. Type of assay: functional, cell-based.
The test system of assay [2] is Influenza A virus. Briefly: Antiviral activity against Influenza A virus (A/Puerto Rico/8/34(H1N1)) infected in MDCK cells expressing M2 V27T/S31N mutant after overnight incubation by fluorescence-based miniplaque assay. The assay is classed as functional, organism-based, A/Puerto Rico/8/1934(H1N1).
In assay [3] the test system is Influenza A virus. Briefly: Antiviral activity against Influenza A virus A/WS/33(H1N1) infected in MDCK cells expressing M2 S31N mutant after overnight incubation by fluorescence-based miniplaque assay. The assay is classed as functional, organism-based.
The test system of assay [4] is Matrix protein 2 (Influenza A virus (A/Udorn/307/1972(H3N2))), P0DOF8 [S31N]. Type of assay: cell-based. The conditions noted are these: Influenza A virus (A/California/08/2009(H1N1)); HEK293; 100 uM.

With `CC(C)CC1(N)C2CC3CC(C2)CC1C3` (stereo not given), the figures for the EC50 (in assay [1]; with Influenza A virus [2]; with Influenza A virus [3]) were 8 µM, 0.3 µM and 210 µM, respectively.
For `NC12CC3CC(CC(C3)C1)C2` [AMANTADINE], the EC50 in assay [1] was 240 µM; with Influenza A virus [2], 24 µM; with Influenza A virus [3] it was 24 µM.
On to `CCCCC1(N)C2CC3CC(C2)CC1C3` (stereo not given), for which the EC50 in assay [1] was determined as 8.5 µM; with Influenza A virus [2], 0.3 µM; in the assay on Influenza A virus [3], 355 µM.
The matching figures for `CC1(N)C2CC3CC(C2)CC1C3` (stereo not given): 54 µM, 0.4 µM and 19 µM.
The matching figures for `CCCCCCC1(N)C2CC3CC(C2)CC1C3` (stereo not given): 0.13 µM, 0.07 µM and 13 µM.
As for `CCC1(N)C2CC3CC(C2)CC1C3` (stereo not given), the figures for the EC50 (in assay [1]; in the assay on Influenza A virus [2]; in the assay on Influenza A virus [3]) were 25 µM, 1.8 µM and 23 µM, respectively.
The matching figures for `CC(N)C12CC3CC(CC(C3)C1)C2` (stereo not given) [RIMANTADINE]: 110 µM, 3.3 µM and 310 µM.
The matching figures for `NC1(Cc2ccccc2)C2CC3CC(C2)CC1C3` (stereo not given): 8.6 µM, 1.2 µM and 280 µM.
For `NC1C2CC3CC(C2)CC1C3` (stereo not given), the Activity in assay [4] was 16%. The EC50 in assay [1] was 150 µM; with Influenza A virus [2], 3.8 µM; in the assay on Influenza A virus [3] it was 110 µM.
The matching figures for `CCCC1(N)C2CC3CC(C2)CC1C3` (stereo not given): 9.4%, 4.7 µM, 0.5 µM and 390 µM.
For `NC1(c2ccccc2)C2CC3CC(C2)CC1C3` (stereo not given), the EC50 in assay [1] was 21 µM; in the assay with Influenza A virus [2] it was under 0.3 µM; with Influenza A virus [3], 86 µM.
